Bridges are numbered along the chain shown (N, C = ends). Where no end group is shown, it is not given here.
Key:
[1] = tested on: rat closed femur fracture model; assay: Rat closed femur fracture model, callus diameter; assay type: in vivo; details: 0.5 mg/kg/day continuous s.c. for one week; 7 days after fracture; versus vehicle group; FIG. 5B
Description: (§1) In accordance with the method of Example 2, a rat closed fracture model was prepared. An administration solution was prepared so as to be a dosage corresponding to 0.5 mg/kg/day by using various NPR-B agonists (CNP derivative A, hCNP-53 (SEQ ID NO: 2), CNP derivative C (CNP-36, amino acid Nos. 18 to 53 of SEQ ID NO: 2), and CNP derivative D (Pro-Gly-CNP37, SEQ ID NO: 15)), and then loaded into an osmotic pump (Model 2001, Alzet). The osmotic pump was buried under the skin of the neck back of the animal retained in a supine position, and continuous subcutaneous administration was performed for one week. Vehicle was administered to the control group. 7 days after the preparation of the bone fracture, the animal was subjected to isoflurane inhalation anesthesia, retained in a supine position to open the abdomen, and then subjected to blood collection from the abdominal aorta. EDTA Na was added to the blood, then the EDTA Na-added blood was centrifuged and the plasma separated, and the resultant was cryopreserved. At a later date, the cGMP level in the plasma was measured by a RIA method using a kit (YSI-7702, YAMASA CORPORATION). After blood collection, the animal was bled for the euthanasia, and then the left femur was resected. Each maximum diameter of the sagittal plane and the coronal plane in the callus was measured, and the average value was used as a callus diameter. In accordance with the method of Example 3, the type X collagen gene expression level in the callus was measured. The measurement was performed for 12 cases in each group.

type X collagen gene = assay: Rat closed femur fracture model, cartilage-related marker gene expression (real-time PCR); assay type: in vivo; details: Example 4: 0.5 mg/kg/day continuous s.c. for one week; 7 days after fracture; versus vehicle group; FIG. 5C
Description: In accordance with the method of Example 2, a rat closed fracture model was prepared. For an animal in a Sham group, a pin only was inserted into the femur, and a bone fracture was not prepared. An administration solution of CNP derivative A was prepared so as to be a dosage corresponding to 0.5 mg/kg/day, and then loaded into an osmotic pump (model 2001, Alzet). The osmotic pump was buried under the skin of the neck back of the animal, and continuous subcutaneous administration was performed for one week. Vehicle was continuously subcutaneously administered to the control group. 7 days after the preparation of the bone fracture, the animal was subjected to isoflurane inhalation anesthesia, retained in a supine position to open the abdomen, and then bled for the euthanasia. The left femur was resected, and immersed into RNAlater (Life Technologies Corporation). The diaphysis or part of the callus was cut out from the femur that had been refrigerated in RNAlater for one day or more. To the cut-out diaphysis or part of the callus, QIAzol (QIAGEN) was added, and the resultant was crushed with tungsten beads. The total RNA was extracted by an RNeasy Mini Kit (QIAGEN), and 1st strand cDNA was synthesized by a SuperScript VILO cDNA Synthesis Kit (Life Technologies Corporation). The gene expression level was measured by a real-time PCR method using TaqMan Gene Expression Master Mix (Life Technologies Corporation). The measured value was standardized by the gene expression level of ubiquitin-C. The standardization was performed for 12 cases in each group.
as §1

NPR-B = target: T1, NPR-B (Homo sapiens, UniProt P20594); details: literature reports (Furuya et al. 1992; US 2010-305031); cited from earlier work
T1 sequence (P20594 23-1047): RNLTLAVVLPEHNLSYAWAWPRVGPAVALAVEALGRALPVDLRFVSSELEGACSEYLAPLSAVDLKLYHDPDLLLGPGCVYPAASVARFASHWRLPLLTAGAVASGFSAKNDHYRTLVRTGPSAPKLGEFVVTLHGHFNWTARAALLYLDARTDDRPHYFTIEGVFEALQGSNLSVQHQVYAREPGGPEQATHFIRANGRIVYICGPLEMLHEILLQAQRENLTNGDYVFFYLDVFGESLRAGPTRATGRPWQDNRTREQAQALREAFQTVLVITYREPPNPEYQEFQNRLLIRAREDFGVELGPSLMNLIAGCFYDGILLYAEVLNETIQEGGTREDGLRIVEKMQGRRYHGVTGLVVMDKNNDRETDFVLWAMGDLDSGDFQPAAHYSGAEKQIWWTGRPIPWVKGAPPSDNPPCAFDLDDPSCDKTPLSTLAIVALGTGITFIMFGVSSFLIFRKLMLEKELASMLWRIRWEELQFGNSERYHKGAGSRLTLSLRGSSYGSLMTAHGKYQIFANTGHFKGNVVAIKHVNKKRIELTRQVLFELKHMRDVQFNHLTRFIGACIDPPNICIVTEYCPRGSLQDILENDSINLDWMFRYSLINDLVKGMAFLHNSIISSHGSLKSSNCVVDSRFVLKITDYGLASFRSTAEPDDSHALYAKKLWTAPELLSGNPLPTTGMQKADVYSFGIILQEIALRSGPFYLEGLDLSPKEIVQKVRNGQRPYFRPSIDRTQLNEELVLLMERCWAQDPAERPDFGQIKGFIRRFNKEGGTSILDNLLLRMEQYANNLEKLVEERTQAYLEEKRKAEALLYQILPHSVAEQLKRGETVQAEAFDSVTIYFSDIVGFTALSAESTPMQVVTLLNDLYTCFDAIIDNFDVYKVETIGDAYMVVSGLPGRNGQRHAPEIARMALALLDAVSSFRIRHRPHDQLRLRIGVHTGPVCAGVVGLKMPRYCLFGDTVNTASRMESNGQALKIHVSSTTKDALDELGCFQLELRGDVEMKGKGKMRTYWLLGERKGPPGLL

Substance | Maximum diameter of the callus generated in the left femur [1] | Gene expression level of type X collagen in the callus (type X collagen gene) | NPR-B agonist activity compared with hCNP-22 (in words) (NPR-B)
CNP derivative C: hCNP-36, 17 consecutive amino acids from the N terminus of hCNP-53 deleted; amino acid Nos. 18 to 53 of SEQ ID NO: 2 (EHPNARKYKGANKKGLSKGCFGLKLDRIGSMSGLGC; mammalian) | significantly larger | significantly suppressed | –
CNP6-22: peptide consisting of only the ring structure, amino acid Nos. 6 to 22 of SEQ ID NO: 1 (CFGLKLDRIGSMSGLGC; disulfide 1-17 (inferred)) | – | – | almost the same NPR-B agonist activity as that of hCNP-22
CNP derivative D: Pro-Gly-CNP37, SEQ ID NO: 15; derivative described in WO 2009/067639 (PGQEHPNARKYKGANKKGLSKGCFGLKLDRIGSMSGLGC; CNP derivative D, which disclosed in Am. J. Hum. Gent.(2012), 91(6), 1108-1114) | significantly larger | significantly suppressed | –
hCNP-53: human-derived CNP-53, DLRVDTKSRAAWARLLQEHPNARKYKGANKKGLSKGCFGLKLDRIGSMSGLGC: SEQ ID NO: 2 (DLRVDTKSRAAWARLLQEHPNARKYKGANKKGLSKGCFGLKLDRIGSMSGLGC; mammalian) [reference compound] | significantly larger | suppressed | –
